This is an account of results in patent US20100216749A1, “Combination Therapy for Neuroprotection” (S.H. PHARMA., LTD, priority 2007, published 2010).

“And” between values parts separate entries of the source, which are not always exact repeats. Identical values can stand only once.

Test [1] relates to middle cerebral artery occlusion (MCAO) stroke animal model. Description: Cerebral infarction volume by TTC staining of brain sections after 1 h MCAO/reperfusion. To be noted: for concentration at which the size of cerebral infarction was inhibited most effectively: i.v. 1, 2, 5, 10 and 20 mg/kg; for cerebral infarction inhibited by: 4 hours after reperfusion (FIG. 11). The test is classed as in vivo, rat.

For test [2] the test system is unchanged. Description: Rota-rod test (motor skill) after MCAO/reperfusion. To be noted: i.v. 5 mg/kg; for motor skill recovered to, by normal motor skill: 6 hours after MCAO/reperfusion (FIG. 9). A general note: Falling from the rotarod earlier than controls is read as motor impairment.
Method: Motor skill of a rat damaged by MCAO was investigated by measuring retention time on Rota-rod (Rota-rod test).
Retention time of each rat on Rota-rod at 5 rpm was measured for 24 hours after MCAO for 1 hour. Next, each rat was also forced to stay on Rota-rod operating at the speeds of 10 rpm and 15 rpm and retention time of each rat was measured at one hour interval. […] The points herein were obtained from repeated experiments, which were performed at 1 hour interval at the speeds of 10 rpm and 15 rpm.
For test [3] the test system is unchanged. In words: Evaluation of neurologic deficit (static reflex test and forelimb placing test) after MCAO/reperfusion. It is filed as in vivo, rat. To be noted: for neuronal damage / motor skill deficit improved: administered 6 hours after MCAO/reperfusion, Example 1 (FIG. 10). As to the method:
Forelimb placing was evaluated by the method described (0: immediate and complete placing, 1: incomplete and/or delayed placing, 2: no placing) (De Ryck M. et al., Stroke 20; 1388-1390). Points of static reflex and forelimb placing of each animal were summed.

The test system of another test is stroke animal model. To be noted: cited from earlier work.
Setting [4] is: i.v. 2.5 mg/kg each drug, 6 hours after reperfusion (Examples 9-12).
Where [5] appears, read: i.v. 5 mg/kg each drug, 6 hours after reperfusion (Examples 3-8).
The mark [6] stands for this setting: 6 hours after reperfusion (FIG. 23).
The mark [7] stands for this setting: i.v. 2.5 mg/kg each drug, 6 hours after reperfusion (Examples 9-12), 2.5 mg/kg.
[8] abbreviates: administered 4 hours after neuronal damage, Example 2 (FIG. 13).
Setting [9] is: administered 6 hours after neuronal damage (Examples 4-7).

`CC(=O)Oc1cc(C(F)(F)F)ccc1C(=O)O` [2-acetoxy-4-(trifluoromethyl)benzoic acid]: the “volume of cerebral infarction reduced by” value in test [1] (setting [4]) is given as 23%.

Turning to `O=C(O)c1ccc(C(F)(F)F)cc1O` [2-hydroxy-4-trifluoromethylbenzoic acid], in test [1] (setting [4]), the “volume of cerebral infarction reduced by” value is on record as 30%.

On to `CC(=O)Oc1ccccc1C(=O)O` [acetylsalicylic acid], for which the “motor skill recovered to, by normal motor skill” value in test [2] is 30%. In addition, in test [3], the “neuronal damage / motor skill deficit improved” value is “very weak”.

Regarding `CNCCC(Oc1ccc(C(F)(F)F)cc1)c1ccccc1` (centres unmarked) [fluoxetine chloride, N-methyl-[4-(trifluoromethyl)phenoxy]benzenepropaneamine], in test [1] (setting [5]), the “volume of cerebral infarction reduced by” value was determined as 59%. Moreover, the “concentration at which the size of cerebral infarction was inhibited most effectively” value in test [1] (setting [6]) stood at 5 mg/kg.

`CCNC(=O)C(C)=O` [pyruvoylaminoethane]: the “volume of cerebral infarction reduced by” value in test [1] (setting [7]) was 20% and 25%.

As to “chloro-2-hydroxy-5-(2,3,5,6-tetrafluoro-4-(trifluoromethyl)benzylamino)benzoate”, the “cerebral infarction inhibited by” value in test [1] (i.v. 5 mg/kg each drug) is 30%. For the same compound, the “neuronal damage improved / neurologic deficit recovered” value in test [3] (setting [8]) is recorded as “very weak”.

Consider “chloro-2-hydroxy-5-(2-(2,4,5-trichlorophenoxy)ethylamino)benzoic acid”, for which, in test [1] (setting [5]), the “volume of cerebral infarction reduced by” value was determined as 64%. In test [3] (setting [9]), the “neuronal damage improved / neurologic deficit recovered” value was “very weak”.

As to “chloro-2-hydroxy-5-(2-(4-methoxyphenoxy)ethylamino)benzoic acid”, the “volume of cerebral infarction reduced by” value in test [1] (setting [5]) amounted to 53%. In addition, in test [3] (setting [9]), the “neuronal damage improved / neurologic deficit recovered” value is on record as “very weak”.

In the case of “chloro-2-hydroxy-5-(4-(trifluoromethyl)phenylethylamino)benzoate”, the “volume of cerebral infarction reduced by” value in test [1] (setting [5]) is on record as 58%.

As for “chloro-5-(2-(2,4-dichlorophenoxy)ethylamino)-2-hydroxybenzoic acid”, the “volume of cerebral infarction reduced by” value in test [1] (setting [5]) is 61%. In addition, in test [3] (setting [9]), the “neuronal damage improved / neurologic deficit recovered” value is “very weak”.

“chloro-5-(2-(4-chlorophenoxy)ethylamino)-2-hydroxybenzoic acid”: the “volume of cerebral infarction reduced by” value in test [1] (setting [5]) turned out to be 55%. In test [3] (setting [9]), the “neuronal damage improved / neurologic deficit recovered” value is listed as “very weak”.

Take ethyl pyruvate (pyruvoyloxyethane) [EP]: the “period spent on Rota-rod” value in test [2] (6 hours after MCAO/reperfusion (FIG. 4)) is “significantly longer period on Rota-rod”. The “motor skill recovered to, by normal motor skill” value in test [2] is reported as 70%. Also, the “size of infarction reduced” value in the test with stroke animal model (administered 24 hours after ischemia-reperfusion) was “approximately 20%”. In the test on stroke animal model (administered into the abdominal cavity 12 hours after ischemia-reperfusion), the “size of infarction reduced to” value is “less than 50%”. In addition, the “infarcted regions (TTC staining) compared with the control group” value in test [1] (5 mg/kg, 6 hours after reperfusion (FIG. 1)) is “significantly decreased”. Also, in test [1] (i.v. 1 mg/kg, 6 hours after reperfusion, 1 h MCAO (FIG. 2)), the “volume of ischemia region” value is “not changed”. The “cerebral infarction inhibited by” value in test [1] (i.v. 5 mg/kg each drug) stood at 48%. Moreover, the “volume of cerebral infarction reduced by” value in test [1] (setting [5]) worked out at 66%. Also, the “infarction volume reduced to” value in test [1] (i.v. 5 mg/kg, 30 minutes after reperfusion (FIG. 3)) is 17.5%; in test [1] (i.v. 5 mg/kg, 30 minutes before reperfusion (FIG. 3)) it was 9.0%; in test [1] (i.v. 5 mg/kg, 6 hours after reperfusion (FIG. 3)), 34.0%; in test [1] (i.v. 5 mg/kg, 9 hours after reperfusion (FIG. 3)) it was 58.7%; in test [1] (i.v. 5 mg/kg, 12 hours after reperfusion (FIG. 3)) it was 58.0%. Besides, the “volume of ischemia region reduced to, by the control animal” value in test [1] (i.v. 5 mg/kg, 6 hours after reperfusion, 1 h MCAO (FIG. 2)) stood at 33.6%; in test [1] (i.v. 10 mg/kg, 6 hours after reperfusion, 1 h MCAO (FIG. 2)) it was 41.7%; in test [1] (i.v. 20 mg/kg, 6 hours after reperfusion, 1 h MCAO (FIG. 2)), 61.6%. Moreover, in test [1] (i.v. 10 mg/kg each versus 5 mg/kg, 6 hours after reperfusion (FIG. 23)), the “infarction inhibiting effect when concentration increased” value is on record as “the effect was not increased”. Besides, the “concentration at which the size of cerebral infarction was inhibited most effectively” value in test [1] (setting [6]) stood at 5 mg/kg. Besides, the “neuronal damage improved / neurologic deficit recovered” value in test [3] (setting [8]) and in test [3] (setting [9]) was 40% each time. Moreover, the “neuronal damage / motor skill deficit improved” value in test [3] is 60%. Besides, the “neurologic deficit after MCAO/reperfusion” value in test [3] (two days after MCAO/reperfusion (FIG. 5)) is “suppress neurologic deficit”.

pyruvoylamininediethane: the “volume of cerebral infarction reduced by” value in test [1] (setting [7]) was 40% and 31%.
